Results as given in patent publication US20240376099A1, “COMPOUNDS AND COMPOSITIONS AS INHIBITORS OF ENDOSOMAL TOLL-LIKE RECEPTORS” (Novartis AG, priority 2016, published 2024).

target: T1, TLR7 (Homo sapiens, UniProt Q9NYK1); experiment: huPBMC TLR7 Antagonist IFNα Assay; assay type: cell-based; settings: human PBMCs stimulated with ssRNA40 10 μg/mL (DOTAP), 14-16 hrs; IFNα2b AlphaLISA read-out
T1 construct: Fresh blood was collected from normal human donors; endogenous in cells; host or cells: human PBMCs from fresh donor blood
T1 sequence (Q9NYK1 27-1049): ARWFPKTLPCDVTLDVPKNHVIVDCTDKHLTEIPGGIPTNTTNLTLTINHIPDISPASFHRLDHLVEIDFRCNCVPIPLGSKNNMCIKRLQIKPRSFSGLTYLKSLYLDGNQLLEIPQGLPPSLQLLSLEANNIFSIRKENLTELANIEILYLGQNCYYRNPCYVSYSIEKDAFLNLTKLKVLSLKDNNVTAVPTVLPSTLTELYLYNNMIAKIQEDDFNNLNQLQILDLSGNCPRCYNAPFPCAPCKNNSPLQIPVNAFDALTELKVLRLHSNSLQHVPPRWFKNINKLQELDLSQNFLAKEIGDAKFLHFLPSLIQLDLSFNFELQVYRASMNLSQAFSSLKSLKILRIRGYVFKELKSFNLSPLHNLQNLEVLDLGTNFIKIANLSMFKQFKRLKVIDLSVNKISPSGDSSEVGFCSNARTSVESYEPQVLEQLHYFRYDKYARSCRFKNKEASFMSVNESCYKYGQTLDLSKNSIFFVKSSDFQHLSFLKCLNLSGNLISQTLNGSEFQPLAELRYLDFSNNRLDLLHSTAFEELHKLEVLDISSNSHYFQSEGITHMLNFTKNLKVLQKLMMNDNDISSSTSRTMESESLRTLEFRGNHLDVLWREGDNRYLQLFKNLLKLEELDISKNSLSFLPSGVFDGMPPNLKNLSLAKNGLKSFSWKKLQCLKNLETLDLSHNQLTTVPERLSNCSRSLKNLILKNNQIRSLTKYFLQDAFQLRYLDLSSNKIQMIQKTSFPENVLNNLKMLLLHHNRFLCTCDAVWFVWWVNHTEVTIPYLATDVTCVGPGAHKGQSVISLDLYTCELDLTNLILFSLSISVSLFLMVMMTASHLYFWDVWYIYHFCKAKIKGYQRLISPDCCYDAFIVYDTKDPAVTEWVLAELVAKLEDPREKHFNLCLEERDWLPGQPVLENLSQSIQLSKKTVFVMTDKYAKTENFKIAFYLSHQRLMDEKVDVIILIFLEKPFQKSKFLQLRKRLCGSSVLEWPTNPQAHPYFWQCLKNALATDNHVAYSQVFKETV
Method in brief: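 Human PBMCs from fresh donor blood (150,000 cells/well) stimulated 14–16 h at 37 °C with DOTAP-complexed ssRNA40 (final 1 μg/ml for TLR8, 10 μg/mL for TLR7) or ODN2216 (final 0.3 μM, TLR9), 0.25% DMSO, ten-point 1/3 compound dilutions. Supernatant IL-6 read by HTRF (TLR8); IFNα by IFNα2b AlphaLISA (TLR7/TLR9).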

IC50	Structure (SMILES)
6 nM	Cc1cc(N2CCc3c(c(C)nn3CC34CCC(N5CCOC[C@@H]5C)(CC3)CC4)C2)c2cnn(C)c2n1 [compound 128, (S)-4-(4-((5-(1,6-dimethyl-1H-pyrazolo[3,4-b]pyridin-4-yl)-3-methyl-4,5,6,7-tetrahydro-1H-pyrazolo[4,3-c]pyridin-1-yl)methyl)bicyclo[2.2.2]octan-1-yl)-3-methylmorpholine]
8 nM	Cc1cc(N2CCc3c(c(C)nn3CC34CCC(N5CCOC[C@H]5C)(CC3)CC4)C2)c2cnn(C)c2n1 [compound 129, (R)-4-(4-((5-(1,6-dimethyl-1H-pyrazolo[3,4-b]pyridin-4-yl)-3-methyl-4,5,6,7-tetrahydro-1H-pyrazolo[4,3-c]pyridin-1-yl)methyl)bicyclo[2.2.2]octan-1-yl)-3-methylmorpholine]
1330 nM	COCCNC12CCC(Cn3nc(C)c4c3CCN(c3ccnc(-c5ccccc5)c3)C4)(CC1)CC2 [compound 130, N-(2-methoxyethyl)-4-((3-methyl-5-(2-phenylpyridin-4-yl)-4,5,6,7-tetrahydro-1H-pyrazolo[4,3-c]pyridin-1-yl)methyl)bicyclo[2.2.2]octan-1-amine]
3 nM	Cc1cc(N2CCc3c(c(C)nn3CC34CCC(NC(=O)C5CNC5)(CC3)CC4)C2)c2cnn(C)c2n1 [compound 131, N-(4-((5-(1,6-dimethyl-1H-pyrazolo[3,4-b]pyridin-4-yl)-3-methyl-4,5,6,7-tetrahydro-1H-pyrazolo[4,3-c]pyridin-1-yl)methyl)bicyclo[2.2.2]octan-1-yl)azetidine-3-carboxamide]
< 0.508 nM	CCN(C)CC(=O)NC12CCC(Cn3nc(C)c4c3CCN(c3cc(C)nc5c3cnn5C)C4)(CC1)CC2 [compound 132, N-(4-((5-(1,6-dimethyl-1H-pyrazolo[3,4-b]pyridin-4-yl)-3-methyl-4,5,6,7-tetrahydro-1H-pyrazolo[4,3-c]pyridin-1-yl)methyl)bicyclo[2.2.2]octan-1-yl)-2-(ethyl(methyl)amino)acetamide]
1 nM	[2H]C([2H])([2H])N(CC(=O)NC12CCC(Cn3nc(C)c4c3CCN(c3cc(C)nc5c3cnn5C)C4)(CC1)CC2)C([2H])([2H])[2H] [compound 134, 2-(bis(trideuteromethyl)amino)-N-(4-((5-(1,6-dimethyl-1H-pyrazolo[3,4-b]pyridin-4-yl)-3-methyl-4,5,6,7-tetrahydro-1H-pyrazolo[4,3-c]pyridin-1-yl)methyl)bicyclo[2.2.2]octan-1-yl)acetamide]
72 nM	Cc1cc(N2CCc3c(c(C)nn3CC34CCC(NCC5(CO)COC5)(CC3)CC4)C2)c2cnn(C)c2n1 [compound 137, (3-(((4-((5-(1,6-dimethyl-1H-pyrazolo[3,4-b]pyridin-4-yl)-3-methyl-4,5,6,7-tetrahydro-1H-pyrazolo[4,3-c]pyridin-1-yl)methyl)bicyclo[2.2.2]octan-1-yl)amino)methyl)oxetan-3-yl)methanol]
32 nM	CCn1ncc2c(N3CCc4c(c(C)nn4CC45CCC(NC(=O)[C@@H]6COCCN6)(CC4)CC5)C3)cc(C)nc21 [compound 141, (S)-N-(4-((5-(1-ethyl-6-methyl-1H-pyrazolo[3,4-b]pyridin-4-yl)-3-methyl-4,5,6,7-tetrahydro-1H-pyrazolo[4,3-c]pyridin-1-yl)methyl)bicyclo[2.2.2]octan-1-yl)morpholine-3-carboxamide]
47 nM	CNCCC(=O)NC12CCC(Cn3nc(C)c4c3CCN(c3cc(C)nc5c3cnn5C)C4)(CC1)CC2 [compound 142, N-(4-((5-(1,6-dimethyl-1H-pyrazolo[3,4-b]pyridin-4-yl)-3-methyl-4,5,6,7-tetrahydro-1H-pyrazolo[4,3-c]pyridin-1-yl)methyl)bicyclo[2.2.2]octan-1-yl)-3-(methylamino)propanamide]
41 nM	Cc1cc(N2CCc3c(c(C)nn3CC34CCC(NC5CCC5)(CC3)CO4)C2)c2cnn(C)c2n1 [compound 143, N-cyclobutyl-1-((5-(1,6-dimethyl-1H-pyrazolo[3,4-b]pyridin-4-yl)-3-methyl-4,5,6,7-tetrahydro-1H-pyrazolo[4,3-c]pyridin-1-yl)methyl)-2-oxabicyclo[2.2.2]octan-4-amine]
73 nM	Cc1nn(CC23CCC(NC4CCC4)(CC2)CC3)c2c1CN(c1ccnc(-c3ccccc3)c1)CC2 [compound 144, N-cyclobutyl-4-((3-methyl-5-(2-phenylpyridin-4-yl)-4,5,6,7-tetrahydro-1H-pyrazolo[4,3-c]pyridin-1-yl)methyl)bicyclo[2.2.2]octan-1-amine]
54 nM	Cc1cc(N2CCc3c(c(C)nn3CC34CCC(NC(=O)OC(C)(C)C)(CC3)C4)C2)c2cnn(C)c2n1 [compound 148, tert-butyl (4-((5-(1,6-dimethyl-1H-pyrazolo[3,4-b]pyridin-4-yl)-3-methyl-4,5,6,7-tetrahydro-1H-pyrazolo[4,3-c]pyridin-1-yl)methyl)bicyclo[2.2.1]heptan-1-yl)carbamate]
